Consider three compounds from US11530181B2, “IL-6 inhibitors and methods of treatment” (University of Florida Research Foundation, Incorporated, priority 2018, dated 2022).

The test system of assay [1] is CNTF induced STAT3 phosphorylation. Description: Western blot, CNTF induced STAT3 phosphorylation in MCF7. The assay is classed as cell-based, human. The following applies: MCF7, 15 μM, 2, 3 and 4 hours. The procedure: (§1) Cells were harvested and lysed in cold radioimmunoprecipitation assay (RIPA) lysis buffer containing proteasome inhibitor cocktail and phosphatase inhibitor cocktail. The protein concentrations were determined using the BCA Protein Assay kit. After adding the loading buffer and boiling at 95° C. for 10 minutes, equivalent amounts of proteins were loaded on and separated by SDS-PAGE, and then were transferred to PVDF membranes. Membranes were probed with primary antibodies (1:1000) against phospho-STAT3 (Tyr705), STAT3, phospho-STAT1 (Tyr701), STAT1, phospho-STAT6 (Tyr 641), STAT6, and GAPDH, respectively, and horseradish peroxidase (HRP)-conjugated secondary antibody (1:10000) (Cell Signaling Technology, Beverly, Mass.). Membranes were analyzed using Enhanced Chemiluminescence Plus reagents and either scanned with the Storm Scanner (Amersham Pharmacia Biotech, Inc., Piscataway, N.J.) or imaged with ChemiDoc MP imaging system (Bio-Rad, Hercules, Calif.). […] The cells were harvested after 30 minutes and analyzed by Western blot.
MCF7 breast cancer cells were seeded in 10 cm plates (1 million cells per plate) and allowed to adhere overnight. […] The cells were harvested after 30 minutes and analyzed by western blotting.
(In general: Immunoblotting shows a protein as a band on a membrane.)

Assay [2] relates to MDA-MB-231 breast cancer cell line. Description: MTT cell viability assay, MDA-MB-231. The format is cell-based, human. The following applies: Homo sapiens; MDA-MB-231 (medium IL-6), 48 h, 0% FBS medium. On the procedure:
(§2) Human breast cancer cell lines MCF7, MDA-MB-231 and SUM159 were maintained in Dulbecco's modified Eagle medium (DMEM). Human pancreatic cancer cell line BxPC-3 was maintained in RPMI 1640 medium. Human pancreatic cancer cell line Capan-1 was maintained in Iscove's Modified Dulbecco's Medium (IMEM). All media were supplemented with 10% FBS and 1% penicillin/streptomycin, and cells were incubated in a humidified 37° C. incubator with 5% CO2. PE/CA-PJ49 cell line was purchased from external sources and maintained according to manufacturer's protocol.
(§3) Cell viability was evaluated by using the MTT assay in triple replicates in one experiment and repeated for three times. Cancer cells were seeded in 96-well plates at a density of 3,000 cells per well. The cells were incubated at 37° C. for a period of 24 hours. […] After incubation for 48 or 72 hours, a stock solution of MTT (0.5 mg/ml) was then added to each well containing the treated cells, followed by incubation at 37° C. for 3 h. After removal of medium, the MTT dye was dissolved with spectrophotometric grade DMSO and the absorbance was read at 570 nm. The IC50 value is determined by interpolation based on the absorbance value halfway between positive and negative controls. […]

Assay [3] has as its system SUM159 breast cancer cell line. Description: MTT cell viability assay, SUM159. The format is cell-based, human. The following applies: Homo sapiens, SUM159, 48 h, SUM159 (high IL-6), 0% FBS medium. Background: Formazan colour is commonly taken as a measure of viable cells.
Assay [4] concerns Capan-1 pancreatic cancer cell line. Description: MTT cell viability assay, Capan-1. The format is cell-based. The following applies: Homo sapiens. The procedure:
as §2
Cell viability was evaluated by using the MTT assay in triple replicates in one experiment and repeated for three times. Cancer cells were seeded in 96-well plates at a density of 3,000 cells per well. The cells were incubated at 37° C. for a period of 24 hours. Escalating concentrations of IL-6/gp130 inhibitors were added in triplicate to the plates in the presence of 10% FBS. After incubation for 48 or 72 hours, a stock solution of MTT (0.5 mg/ml) was then added to each well containing the treated cells, followed by incubation at 37° C. for 3 h. After removal of medium, the MTT dye was dissolved with spectrophotometric grade DMSO and the absorbance was read at 570 nm. The IC50 value is determined by interpolation based on the absorbance value halfway between positive and negative controls. […]

For assay [5], the system named is MCF7 breast cancer cell line. Description: MTT cell viability assay, MCF7. The format is cell-based, human. The following applies: Homo sapiens; MCF7 (low IL-6), 48 h, 0% FBS medium. The procedure: as §2, §3
The subject of assay [6] is PE/CA-PJ49 cell line. Description: Inhibitory activity in PTPRD mutant cell line PE/CA-PJ49. The assay is classed as cell-based. The following applies: PE/CA-PJ49, 48 h. The procedure:
as §2
Cell viability was evaluated by using the MTT assay in triple replicates in one experiment and repeated for three times. Cancer cells were seeded in 96-well plates at a density of 3,000 cells per well. The cells were incubated at 37° C. for a period of 24 hours. Escalating concentrations of IL-6/gp130 inhibitors were added in triplicate to the plates in the presence of 10% FBS. After incubation for 48 or 72 hours, a stock solution of MTT (0.5 mg/ml) was then added to each well containing the treated cells, followed by incubation at 37° C. for 3 h. After removal of medium, the MTT dye was dissolved with spectrophotometric grade DMSO and the absorbance was read at 570 nm. The IC50 value is determined by interpolation based on the absorbance value halfway between positive and negative controls. In the experiment of LLM4 showing higher efficacy in cancer cells with higher levels of IL-6, instead of using medium with 10% FBS, DMEM with 0% FBS was used in order to eliminate the influence of trace amounts of growth factors and cytokines in FBS.
Protein tyrosine […] receptor type D (PTPRD) is reported to serve as a tumor suppressor in various human cancers [Peyser et. al, PLoS One (2015) 10(8)]. PTPRD mutation is also known to be associated with increased STAT3 expression [Peyser et. al, PLoS One (2015) 10(8)]. Table 8 captures the inhibitory activities of various compounds in the PTPRD mutant cell line, PE/CA-PJ49.

Assay [7] relates to STAT4 phosphorylation. Description: Western blot, STAT4 phosphorylation in MCF7. The following applies: MCF7, pre-treatment 2, 3 and 4 hours. The assay is classed as cell-based, human. The procedure: (§4) FIG. 13. depicts the reduced effect on STAT1, STAT2, STAT4 and STAT6 phosphorylation by LLM418. The MCF7 cells were serum-starved overnight, then treated with LLM4 (15 μM) for 2, 3 and 4 hours. STAT1, STAT2, STAT4 and STAT6 phosphorylation were induced by INF-γ, INF-α and IL-4, respectively. The cells were harvested at 30 minutes and analyzed by western blot assays.
as §1

Assay [8] relates to STAT2 phosphorylation. Description: Western blot, STAT2 phosphorylation in MCF7. The format is cell-based, human. The following applies: MCF7, pre-treatment 2, 3 and 4 hours. On the procedure: as §4, §1

What is called IC50 is the concentration needed to halve the response being measured. Turning to `O=C(Nc1cc(F)ccc1-n1cccc1)c1ccc(OCCCN2CCCCC2)cc1` [LLM4, N-(5-fluoro-2-(1H-pyrrol-1-yl)phenyl)-4-(3-(piperidin-1-yl)propoxy)benzamide], the “CNTF induced STAT3 phosphorylation” value in assay [1] is reported as “remain intact”. The IC50 in assay [2] was 0.97 µM; in assay [3] it was 0.04 µM; in assay [4], 35.1 µM; in assay [5], 4.51 µM.

For `O=C(Nc1cccc(OCCN2CCCCC2)c1)Nc1cccc(-c2ccn[nH]2)c1` [LLM414, 1-(3-(1H-pyrazol-5-yl)phenyl)-3-(3-(2-(piperidin-1-yl)ethoxy)phenyl)urea], half-maximal inhibition in assay [6] (IC50) required 3.41 ± 0.99 µM.

Consider `O=C(Nc1ccccc1-c1ccn[nH]1)c1ccc(OCCN2CCCCC2)cc1` [LLM418, N-(2-(1H-pyrazol-5-yl)phenyl)-4-(2-(piperidin-1-yl)ethoxy)benzamide], for which, in assay [6], the IC50 stood at 1.79 ± 0.48 µM. Further, the “effect on STAT4 phosphorylation” value in assay [7] is on record as “little effect”. Besides, the “effect on STAT2 phosphorylation” value in assay [8] is on record as “little effect”.
